Laboratory results: patent US11041000B2, “Peptide inhibitors of interleukin-23 receptor and their use to treat inflammatory diseases” (priority 2019, dated 2021)
Bridge positions count the residues as written; N and C are the ends. Square brackets hold non-standard residues; d marks the D form. Peptide text beside a SMILES is read from it. Trp(7-Me) = Cc1cccc2c(C[C@H](N)C(=O)O)c[nH]c12; 2Nal = N[C@@H](Cc1ccc2ccccc2c1)C(=O)O; AEF = NCCOc1ccc(C[C@H](N)C(=O)O)cc1; Cit = NC(=O)NCCC[C@H](N)C(=O)O; Pen = CC(C)(S)[C@H](N)C(=O)O; αMeK = C[C@](N)(CCCCN)C(=O)O; Aib = CC(C)(N)C(=O)O

Key:
[1] = Stability in simulated gastric fluid (SGF); format: in vitro ADME; conditions: simulated gastric fluid with porcine pepsin, pH 2, 37° C., 20 μM peptide
[2] = Stability in simulated intestinal fluid (SIF); format: in vitro ADME; conditions: simulated intestinal fluid with pancreatin, pH 6.8, 37° C., matrix is 100 fold dilution of standard SIF concentration, read-out: SIF t½ (converted)
[3] = Stability in human fecal homogenate; format: in vitro ADME; conditions: 20% fecal homogenate (supernatant), pH 6.8, 20% human fecal homogenate, anaerobic, 37° C., read-out: t½: Human Feces anaerobic (converted)
Method: (§1) Centrifuged the homogenate at 2800×g for 15 min. The supernatant is taken out and used for incubations. […] The final test compound concentration was 20 μM.

[4] = tested on: Natural killer (NK) cells; assay: NK cell based assay (IL-23-induced IFNγ); conditions: primary human NK cells, IL-23 plus IL-18 10 ng/mL, IFNγ in supernatant after 20 to 24 hours
Method: Natural killer (NK) cells, purified from human peripheral blood of healthy donors by negative selection (Miltenyi Biotech, Cat #130-092-657), were cultured in complete media (RPMI 1640 containing 10% FBS, L-glutamine and penicillin-streptomycin) in the presence of IL-2 (RnD, Cat #202-IL-010/CF) at 25 ng/mL. After 7 days, cells were centrifuged, and resuspended in complete media at 1E6 cells/mL. […] After 20 to 24 hours, IFNγ in the supernatant was quantified using Quantikine ELISA (RnD, Cat #DIF50).

[5] = Stability in cynomolgus monkey fecal homogenate; format: in vitro ADME; conditions: 20% fecal homogenate (supernatant), pH 6.8, 20% cynomolgus monkey fecal homogenate, anaerobic, 37° C., read-out: t½: Monkey Feces anaerobic (converted)
Method: as §1

Stability in rat plasma = format: in vitro ADME; conditions: both sexes, SD rat plasma, EDTA, 37° C., read-out: t½: Rat Plasma EDTA (converted)
[6] = molecular target: IL-23R-expressing DB cells (Homo sapiens, UniProt Q5VWK5); assay: DB cells IL23R pSTAT3 cell assay (pStat3HTRF); format: cell-based; conditions: DB cells stimulated with IL-23 0.5 nM, 30 minutes, phospho-STAT3 in cell lysates; read-out: pStat3 HTRF
Chain of IL-23R-expressing DB cells (Q5VWK5 24-629 limits assumed): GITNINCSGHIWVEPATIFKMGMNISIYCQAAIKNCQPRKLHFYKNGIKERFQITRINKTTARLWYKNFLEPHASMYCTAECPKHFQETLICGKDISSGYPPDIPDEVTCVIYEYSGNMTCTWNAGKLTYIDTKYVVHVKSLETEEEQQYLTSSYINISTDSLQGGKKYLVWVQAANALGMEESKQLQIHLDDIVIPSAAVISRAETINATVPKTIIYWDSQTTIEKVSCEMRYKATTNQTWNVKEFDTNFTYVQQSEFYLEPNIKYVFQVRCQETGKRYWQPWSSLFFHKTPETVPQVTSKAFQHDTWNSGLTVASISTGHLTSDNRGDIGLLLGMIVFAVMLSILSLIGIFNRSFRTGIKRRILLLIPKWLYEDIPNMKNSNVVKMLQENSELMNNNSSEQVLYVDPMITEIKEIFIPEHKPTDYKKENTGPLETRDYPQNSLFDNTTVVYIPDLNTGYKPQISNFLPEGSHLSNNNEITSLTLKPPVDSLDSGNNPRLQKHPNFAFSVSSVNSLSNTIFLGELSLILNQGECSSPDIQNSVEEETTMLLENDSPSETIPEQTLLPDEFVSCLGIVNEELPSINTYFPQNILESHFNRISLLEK
Description: Human ELISA indicates the IL23-IL23R competitive binding assay described below, Rat ELISA indicates the rat IL-23R competitive binding ELISA assay described below, and pStat3HTRF indicates the DB cells IL-23R pSTAT3 cell assay described below. The peptides depicted in Table E1 are cyclized via a disulfide bridge formed between two Pen residues in these peptides. The peptides depicted in Table E2 are cyclized via a thioether bond between the indicated amino acid residues. Table E2 provides an illustrative structure depicting thioether cyclization, which is indicated in the table by the term “cyclo,” with the cyclic region bracketed immediately following the term “cyclo.” For certain peptides, the residue Abu is present where indicated, whereas in other embodiments, e.g., those related to the non-cyclized form, the Abu may be referred to as a hSer(Cl) or homoSer residue. The petpides depicted in Table E3 are cyclized via a disulfide bridge formed between two Pen residues or a thioether bond between Abu and Cys.
IL-23 plays a central role in supporting and maintaining Th17 differentiation in vivo. This process is thought to be mediated primarily through the Signal Transducer and Activator of Transcription 3 (STAT3), with phosphorylation of STAT3 (to yield pSTAT3) leading to upregulation of RORC and pro-inflammatory IL-17. This cell assay examines the levels of pSTAT3 in IL-23R-expressing DB cells when stimulated with IL-23 in the presence of test compounds. Serial dilutions of test peptides and IL-23 (Humanzyme #HZ-1261) at a final concentration of 0.5 nM, were added to each well in a 96 well tissue culture plate (Corning #CLS3894). DB cells (ATCC #CRL-2289), cultured in RPMI-1640 medium (Thermo Scientific #11875093) supplemented with 10% FBS, were added at 5×10E5 cells/well and incubated for 30 minutes at 37° C. in a 5% CO2 humidified incubator. Changes in phospho-STAT3 levels in the cell lysates were detected using the Cisbio HTRF pSTAT3 (Tyr705) Cellular Assay Kit (Cisbio #62AT3PEH), according to manufacturer's Two Plate Assay protocol.

SGF t½ [1] [h] | half-life at 20 μM [2] [h] | half-life at 20 μM [3] [h] | half-life at 20 μM [5] [h] | half-life at 20 μM (Stability in rat plasma) [h] | IC50 [6] [nM] | Compound | IC50 [4] [nM]
24 |  |  |  |  |  | CC(=O)NCCCC[C@H](NC(=O)[C@](C)(CCCCN)NC(=O)[C@H](Cc1ccc2ccccc2c1)NC(=O)[C@H](Cc1ccc(OCCN)cc1)NC(=O)[C@H]1NC(=O)[C@H](CCCNC(N)=O)NC(=O)[C@H](Cc2c[nH]c3c(C)cccc23)NC(=O)[C@H]([C@@H](C)O)NC(=O)[C@H](CC(N)=O)NC(=O)[C@@H](NC(C)=O)C(C)(C)SSC1(C)C)C(=O)N[C@@H](CC(N)=O)C(=O)NC(C)(C)C(N)=O [compound 264] (Ac-[Pen]NT[Trp(7-Me)][Cit][Pen][AEF][2Nal][αMeK]K(Ac)N[Aib]-NH2; disulfide 1-6) | 
 | 14 | > 24 | > 24 | > 24 |  | CC(=O)NCCCC[C@@H]1NC(=O)[C@H](Cc2c[nH]c3c(C)cccc23)NC(=O)[C@H]([C@@H](C)O)NC(=O)[C@H](CC(N)=O)NC(=O)[C@@H](NC(C)=O)C(C)(C)SSC(C)(C)[C@@H](C(=O)N[C@@H](Cc2ccc(OCCN)cc2)C(=O)N[C@@H](Cc2ccc3ccccc3c2)C(=O)N[C@@](C)(CCCCN)C(=O)N[C@@H](CCCCNC(=O)C2CCCCC2)C(=O)N[C@@H](CC(N)=O)C(=O)N[C@H](CC(C)C)C(N)=O)NC1=O [compound 357] | 3.8
 | 12 | > 24 | > 24 | > 24 | 0.639 | CC(=O)NCCCC[C@H](NC(=O)[C@](C)(CCCCN)NC(=O)[C@H](Cc1ccc2ccccc2c1)NC(=O)[C@H](Cc1ccc(OCCN)cc1)NC(=O)[C@H]1NC(=O)[C@H](CCCNC(N)=O)NC(=O)[C@H](Cc2c[nH]c3c(C)cccc23)NC(=O)[C@H]([C@@H](C)O)NC(=O)[C@H](CC(N)=O)NC(=O)[C@@H](NC(C)=O)C(C)(C)SSC1(C)C)C(=O)N[C@@H](CC(N)=O)C(=O)NC(C)(C)C(=O)N[C@H](CCCNC(=N)N)C(N)=O [compound 345] (Ac-[Pen]NT[Trp(7-Me)][Cit][Pen][AEF][2Nal][αMeK]K(Ac)N[Aib][dR]-NH2; disulfide 1-6) | 
